In patent US20230346792A1, “COMPOSITIONS AND METHODS FOR TREATING LUNG INFLAMMATION” (Hoth Therapeutics, Inc., priority 2020, published 2023):

What was measured:
[1] = test system: nociception induced by capsaicin (TRPV1) or AITC (TRPA1); settings: capsaicin (via TRPV1) or AITC (via TRPA1), rat peritoneum; cited from earlier work
NK1R = molecular target: T1, NK1R (Rattus norvegicus, UniProt P14600); settings: asthma model; cited from earlier work
T1 construct: host or cells: living animal of an asthma model (endogenous receptor)
T1 sequence (P14600 whole entry): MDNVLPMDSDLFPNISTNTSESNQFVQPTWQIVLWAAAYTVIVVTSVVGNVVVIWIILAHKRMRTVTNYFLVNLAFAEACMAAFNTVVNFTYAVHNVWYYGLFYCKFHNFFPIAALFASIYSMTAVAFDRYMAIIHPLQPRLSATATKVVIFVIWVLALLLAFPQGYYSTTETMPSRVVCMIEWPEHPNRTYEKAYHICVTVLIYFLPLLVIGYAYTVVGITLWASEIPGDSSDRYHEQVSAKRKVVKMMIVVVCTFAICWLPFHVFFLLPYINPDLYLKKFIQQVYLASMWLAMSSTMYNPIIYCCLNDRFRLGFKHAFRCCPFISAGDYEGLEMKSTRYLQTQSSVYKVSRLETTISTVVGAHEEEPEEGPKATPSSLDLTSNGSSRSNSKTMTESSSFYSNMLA

[2] = test system: NSCLC squamous cell carcinoma; settings: one patient with history of COPD and NSCLC squamous cell carcinoma; aprepitant combined with radiotherapy; cited from earlier work
Neurokinin-1 receptor = molecular target: T2, Neurokinin-1 receptor (Homo sapiens, UniProt P25103); settings: lung cancer; cited from earlier work
T2 construct: host or cells: treated subjects (endogenous receptor)
T2 sequence (P25103 whole entry): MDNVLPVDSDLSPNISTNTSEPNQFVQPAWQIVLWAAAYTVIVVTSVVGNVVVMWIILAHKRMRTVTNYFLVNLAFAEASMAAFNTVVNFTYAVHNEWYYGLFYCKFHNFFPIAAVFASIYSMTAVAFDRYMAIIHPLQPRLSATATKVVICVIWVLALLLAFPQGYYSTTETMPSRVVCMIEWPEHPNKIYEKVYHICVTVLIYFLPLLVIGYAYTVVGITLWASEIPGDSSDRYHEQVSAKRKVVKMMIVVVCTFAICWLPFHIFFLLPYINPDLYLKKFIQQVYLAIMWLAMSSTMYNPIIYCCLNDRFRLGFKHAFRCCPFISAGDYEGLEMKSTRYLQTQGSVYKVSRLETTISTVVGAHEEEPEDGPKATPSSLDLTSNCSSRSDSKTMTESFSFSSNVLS

Covid-19 patients = assay: Randomized double-blind placebo-controlled clinical study of aprepitant injectable emulsion in Covid-19 positive patients; assay type: in vivo, human; settings: aprepitant injectable emulsion (e.g., Cinvanti) daily (QD), 14 days, comparator saline placebo, including severe to critical patients
Source text: One group of patients receives saline placebo daily for a desirable period of time (e.g., 14 days) with normal management and care, and the other group of patients receives aprepitant injectable emulsion (e.g., Cinvanti®) daily (QD) during the same period of time (e.g., 14 days).

[3] = in vivo; cited from earlier work

Compound | nociception induced by capsaicin or AITC [1] | lung inflammation and inflammatory cytokines (NK1R) | treatment outcome of lung cancer patient [2] | cough frequency (Neurokinin-1 receptor) | effectiveness in treating Covid-19 patients versus placebo (Covid-19 patients) | adverse effects of chronic treatment [3]
C=C(C)[C@]12C[C@@H](C)[C@@]34O[C@](Cc5ccccc5)(O[C@@H]1[C@@H]3C=C(COC(=O)Cc1ccc(O)c(OC)c1)C[C@]1(O)C(=O)C(C)=C[C@@H]41)O2 [resiniferatoxin] | able to reduce nociception |  |  |  |  | 
C[C@@H](O[C@H]1OCCN(Cc2nc(=O)[nH][nH]2)[C@H]1c1ccc(F)cc1)c1cc(C(F)(F)F)cc(C(F)(F)F)c1 [aprepitant] | able to reduce nociception | reduced lung inflammation and inflammatory cytokines | successfully treated | reduction in cough frequency | more effective in treating Covid-19 patients | 
C#Cc1cccc(Nc2ncnc3cc(OCCOC)c(OCCOC)cc23)c1 [erlotinib] |  |  |  |  |  | induces hypomagnesemia, thereby triggering SP-mediated oxidative/inflammation stress and mild-to-moderate cardiac dysfunction
